Test in all cases: DTP human tumour cell line panel, 48 h
Experiment [1] has as its system HL-60.
Experiment [2] relates to MDA-MB-435.
The test system of experiment [3] is UO-31.
Experiment [4] deals with SNB-75.
Experiment [5] has as its system Hs-578T.
Experiment [6] relates to NCI-H460.
Experiment [7] relates to MCF7.
Experiment [8] has as its system UACC-257.
For experiment [9], the system named is SF-268.
For experiment [10], the system named is SN12C.
For experiment [11], the system named is K562.
In experiment [12] the test system is SK-OV-3.
Experiment [13] concerns NCI/ADR-RES.
The subject of experiment [14] is NCI-H522.
In experiment [15] the test system is U-251.
In experiment [16] the test system is NCI-H23.
In experiment [17] the test system is EKVX.
For experiment [18], the system named is UACC-62.
Experiment [19] concerns SR.
The subject of experiment [20] is SF-539.

SMILES strings stand for the structures.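 Values below derive from 48-hour exposures of cells grown in 96-well plates, with endpoints linearly interpolated between the two concentrations bracketing the appropriate inhibition level. The concentration for 50% growth inhibition is given as GI50.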 Active and inactive are the calls of the source. Cut-off read from the data, not from the text of the source: active = GI50 up to about 1.1 µM and inactive = higher.

Turning to `CSc1c(C(=O)Nc2ccc(C)cc2)c(N)n(N)c(=O)c1C#N`, the GI50 (as a rule, the concentration at which growth is held to half of that of the control) in experiment [1] is > 100 µM (inactive); in experiment [2], > 100 µM (inactive); in experiment [3] it was 60.1 µM (inactive); in experiment [4], > 100 µM (inactive); in experiment [5] it was > 100 µM (inactive); in [6], > 100 µM (inactive). Besides, the GI50 in experiment [7], in experiment [8], in experiment [9], in experiment [10], in experiment [11] and in [12] was > 100 µM (inactive) throughout. Also, the GI50 in experiment [13], in [14], in experiment [15], in experiment [16], in experiment [17] and in experiment [18] was > 100 µM (inactive) each time. For the same compound, the GI50 in experiment [19] and in experiment [20] was > 100 µM (inactive) throughout.
Consider `C/C(=N\Nc1nc2ccccc2o1)c1cc(C)ncn1`, for which the GI50 in [1] was < 0.01 µM (active); in experiment [2], 0.319 µM (active); in experiment [3], 0.019 µM (active); in experiment [4], 0.151 µM (active); in experiment [5] it was 0.231 µM (active); in [6], 0.0455 µM (active). The GI50 in experiment [7] is 0.0212 µM (active); in [8], < 0.0211 µM (active); in [9], 0.031 µM (active); in experiment [10], < 0.0205 µM (active); in [11] it was 0.0356 µM (active); in experiment [12] it was 0.0675 µM (active). Also, the concentration for 50% growth inhibition (GI50) in [13] is 0.0242 µM (active); in [14] it was < 0.01 µM (active); in experiment [15], 0.128 µM (active); in experiment [16] it was 0.102 µM (active); in experiment [17] it was < 0.0153 µM (active); in experiment [18], 0.0867 µM (active). Also, the values for the GI50 in experiment [19] and in experiment [20] were 0.124 µM (active) and 0.107 µM (active), respectively.
As to `N/N=C1\C(OC(=O)Nc2cccc(Cl)c2)=Nc2ccccc21`, the GI50 in experiment [1] was 13.6 µM (inactive); in experiment [2], 8.57 µM (inactive); in experiment [3] it was 5.32 µM (inactive); in [4], 6.22 µM (inactive); in experiment [5] it was 16.1 µM (inactive); in experiment [6] it was 6.9 µM (inactive). In addition, the GI50 was 8.51 µM (inactive) in experiment [7]; 13.7 µM (inactive) in experiment [8]; 12.1 µM (inactive) in [9]; 4.95 µM (inactive) in experiment [10]; 5.92 µM (inactive) in experiment [11]; 7.43 µM (inactive) in experiment [12]. Moreover, the GI50 is 6.4 µM (inactive) in experiment [13]; 3.13 µM (inactive) in experiment [14]; 6.9 µM (inactive) in experiment [15]; 5.07 µM (inactive) in [16]; 4.05 µM (inactive) in experiment [17]; 7.78 µM (inactive) in [18]. For the same compound, the values for the GI50 in experiment [19] and in experiment [20] were 11.4 µM (inactive) and 17.1 µM (inactive), respectively.
For the compound `CC(C)(C)N1Cc2ccccc2/C(=C/Sc2ccccc2)C1=O`, the GI50 in experiment [1] was 13.5 µM (inactive); in experiment [2], 7.38 µM (inactive); in experiment [3], 12.3 µM (inactive); in experiment [4] it was 16 µM (inactive); in [5], 16.7 µM (inactive); in experiment [6], 14.9 µM (inactive). Besides, the GI50 was 7.19 µM (inactive) in [7]; 14.3 µM (inactive) in experiment [8]; 2.44 µM (inactive) in experiment [9]; 8.17 µM (inactive) in experiment [10]; 5.85 µM (inactive) in [11]; 17.4 µM (inactive) in [12]. Moreover, the GI50 in experiment [13] was 14.1 µM (inactive); in experiment [14] it was 2.75 µM (inactive); in experiment [15], 13.6 µM (inactive); in experiment [16], 6.84 µM (inactive); in experiment [17], 16.8 µM (inactive); in experiment [18] it was 7.69 µM (inactive). The GI50 in experiment [19] is 2.64 µM (inactive); in [20] it was 8.57 µM (inactive).
With `NNc1ncc2c(n1)-c1ccccc1OC2`, the GI50 was 19.7 µM (inactive) in [1]; 70.5 µM (inactive) in experiment [2]; 41.1 µM (inactive) in experiment [3]; 35.6 µM (inactive) in experiment [4]; > 100 µM (inactive) in experiment [5]; 32.3 µM (inactive) in experiment [6]. Moreover, the GI50 in experiment [7] was 50.1 µM (inactive); in experiment [8] it was > 100 µM (inactive); in [9] it was 41.6 µM (inactive); in experiment [10] it was 71.6 µM (inactive); in experiment [11], 50.9 µM (inactive); in experiment [12], 57.1 µM (inactive). For the same compound, the GI50 is 28 µM (inactive) in [13]; 46.5 µM (inactive) in [14]; 54.2 µM (inactive) in experiment [15]; > 100 µM (inactive) in experiment [16]; 49.4 µM (inactive) in experiment [17]; 63.7 µM (inactive) in [18]. Besides, the results for the GI50 in [19] and in experiment [20] were 27.8 µM (inactive) and 46.3 µM (inactive), respectively.
As for `O=C1NC(=O)C(F)(n2cc(F)c(=O)[nH]c2=O)C(O)N1` (stereo not given), the GI50 in experiment [1], in experiment [2], in experiment [3], in experiment [4], in [5] and in [6] was > 10 µM (inactive) each time. Further, the GI50 in experiment [7], in experiment [8], in [9], in experiment [10], in [11] and in [12] was > 10 µM (inactive) in each case. Also, the GI50 in experiment [13], in experiment [14], in [15], in [16], in experiment [17] and in [18] was > 10 µM (inactive) throughout. The GI50 in experiment [19] and in [20] was > 10 µM (inactive) throughout.
As for `C=CCN(c1cc(OCc2ccccc2)c2[nH]cc(C)c2c1)S(C)(=O)=O`, the GI50 in experiment [1] was > 100 µM (inactive); in experiment [2], 72.1 µM (inactive); in [3], 41.8 µM (inactive); in experiment [4] it was 19.8 µM (inactive); in experiment [5] it was 45.8 µM (inactive); in experiment [6], 76.2 µM (inactive). The GI50 was 59.7 µM (inactive) in [7]; 52.7 µM (inactive) in [8]; 46.7 µM (inactive) in experiment [9]; 51.3 µM (inactive) in experiment [10]; > 100 µM (inactive) in experiment [11]; 37.3 µM (inactive) in [12]. Also, the GI50 was 53.1 µM (inactive) in experiment [13]; 37 µM (inactive) in experiment [14]; 46.7 µM (inactive) in experiment [15]; 87.1 µM (inactive) in experiment [16]; 24.2 µM (inactive) in experiment [17]; 22.8 µM (inactive) in experiment [18]. Further, the GI50 is > 100 µM (inactive) in experiment [19] and 56.2 µM (inactive) in experiment [20].
Take `c1ccc2c(c1)ccn1ccc3c4ccccc4nc-3c21`: the GI50 was 0.297 µM (active) in experiment [1]; 0.362 µM (active) in experiment [2]; 0.34 µM (active) in experiment [3]; 0.647 µM (active) in experiment [4]; 1.23 µM (inactive) in experiment [5]; 0.262 µM (active) in [6]. For the same compound, the GI50 in [7] is 0.229 µM (active); in experiment [8], 1.06 µM (active); in experiment [9] it was 0.536 µM (active); in experiment [10], 0.285 µM (active); in experiment [11] it was 0.194 µM (active); in experiment [12] it was 0.566 µM (active). Also, the GI50 is 0.33 µM (active) in experiment [13]; 0.3 µM (active) in [14]; 0.299 µM (active) in experiment [15]; 0.289 µM (active) in [16]; 0.214 µM (active) in [17]; 1.16 µM (inactive) in experiment [18]. For the same compound, the GI50 is < 0.01 µM (active) in [19] and 0.369 µM (active) in experiment [20].
As for `COc1ccc2c(c1OC)CN1CCc3cc4c(cc3C1C2)OCO4` (stereo not given) [TETRAHYDROBERBERINE], the GI50 in [1] was > 100 µM (inactive); in experiment [2], > 100 µM (inactive); in experiment [3], > 100 µM (inactive); in experiment [4] it was > 100 µM (inactive); in experiment [5], > 100 µM (inactive); in experiment [6], 61 µM (inactive). Besides, the GI50 in experiment [7] is > 100 µM (inactive); in experiment [8] it was > 100 µM (inactive); in experiment [9] it was > 100 µM (inactive); in [10], > 100 µM (inactive); in experiment [11], 80 µM (inactive); in experiment [12], > 100 µM (inactive). Also, the GI50 in [13], in experiment [14], in experiment [15], in [16], in experiment [17] and in experiment [18] was > 100 µM (inactive) throughout. For the same compound, the GI50 in [19] and in [20] was > 100 µM (inactive) throughout.
Consider `CC1=C(O)C(O)=C(C2=C(O)C(O)=C(C)C(=O)C2=O)C(=O)C1=O`, for which the GI50 in [1] is 42.9 µM (inactive); in [2], 37.8 µM (inactive); in [3], 39.1 µM (inactive); in [4], 76.2 µM (inactive); in experiment [5], 36.7 µM (inactive); in [6], 40.6 µM (inactive). For the same compound, the GI50 in [7] is 45.3 µM (inactive); in experiment [8], 35.6 µM (inactive); in [9], 56.9 µM (inactive); in experiment [10], 45 µM (inactive); in experiment [11], 45.7 µM (inactive); in [12], 37.2 µM (inactive). The GI50 in experiment [13] is 36 µM (inactive); in experiment [14], 29.3 µM (inactive); in experiment [15], 40.9 µM (inactive); in [16], 40.7 µM (inactive); in experiment [17], > 100 µM (inactive); in [18], 18.6 µM (inactive). The GI50 in experiment [19] was > 100 µM (inactive); in experiment [20], 33 µM (inactive).

Values taken from ChEMBL document CHEMBL1201862, “PubChem BioAssay data set” (2004).
